Key:
PRKCD = biological target: T1, PRKCD (Homo sapiens, UniProt Q05655); experiment: Kinobeads full dose-response competition binding: PRKCD; conditions: Gene Name PRKCD
T1 construct: endogenous in cells

[1] = system: IL-10 secretion in primary bone marrow-derived dendritic cells (BMDCs); experiment: IL-10 cytokine secretion assay (ELISA) in Zymosan-stimulated primary BMDCs; assay type: cell-based, mouse; conditions: murine BMDCs, inhibitor 30 min before Zymosan stimulation
Procedure: A subsequent full dose–response experiment confirmed potent and selective binding to SYK ( Kdapp = 58 nM, […] = 0.60; Extended Data Fig. 5a,b). […] One of the effects of Zymosan is that it activates Dectin-1 signaling, in turn activating SYK and leading to increased IL-10 cytokine production (Fig. 3c)[34]. Treatment of cells with the respective SYK inhibitors before Zymosan stimulation indeed led to decreased levels of IL-10 in a dose-dependent fashion (Fig. 3d). […] In line with the cytokine readout, we observed a dose depended reduction of pTyr525/526 indicating SYK inhibition in live cells (Fig. 3e and Extended Data Fig. 5c).
Primary BMDCs were obtained from 9-week-old C57BL/6 mice that were maintained under standard specific pathogen-free conditions. BMDCs were differentiated for 7 days in Roswell Park Memorial Institute medium (Gibco) and granulocyte-macrophage colony-stimulating factor. On day seven, BMDCs were seeded in 96-well plates at 10^5 cells per well in 100 µl of culture medium followed by incubation for 4 h at 37 °C. Subsequently, cells were incubated with SYK inhibitors for 30 min followed by stimulation with Zymosan (final concentration of 50 µg ml^−1; Invivogen) and dispersed in culture medium for 24 h. […] For cytokine secretion quantification, cell culture medium was collected and concentrations of IL-10 in the supernatant were determined using mouse enzyme-linked immunosorbent assay kits (IL-10: Invitrogen) according to the manufacturer’s protocol. Experiments were performed in biological triplicates.

EPHA2 = biological target: T2, EPHA2 (Homo sapiens, UniProt P29317); experiment: Kinobeads two-dose competition binding: EPHA2; conditions: read-out: Lestaurtinib Drugmatrix value, Gene Name EPHA2
T2 construct: endogenous in cells
T2 sequence (P29317 24-976): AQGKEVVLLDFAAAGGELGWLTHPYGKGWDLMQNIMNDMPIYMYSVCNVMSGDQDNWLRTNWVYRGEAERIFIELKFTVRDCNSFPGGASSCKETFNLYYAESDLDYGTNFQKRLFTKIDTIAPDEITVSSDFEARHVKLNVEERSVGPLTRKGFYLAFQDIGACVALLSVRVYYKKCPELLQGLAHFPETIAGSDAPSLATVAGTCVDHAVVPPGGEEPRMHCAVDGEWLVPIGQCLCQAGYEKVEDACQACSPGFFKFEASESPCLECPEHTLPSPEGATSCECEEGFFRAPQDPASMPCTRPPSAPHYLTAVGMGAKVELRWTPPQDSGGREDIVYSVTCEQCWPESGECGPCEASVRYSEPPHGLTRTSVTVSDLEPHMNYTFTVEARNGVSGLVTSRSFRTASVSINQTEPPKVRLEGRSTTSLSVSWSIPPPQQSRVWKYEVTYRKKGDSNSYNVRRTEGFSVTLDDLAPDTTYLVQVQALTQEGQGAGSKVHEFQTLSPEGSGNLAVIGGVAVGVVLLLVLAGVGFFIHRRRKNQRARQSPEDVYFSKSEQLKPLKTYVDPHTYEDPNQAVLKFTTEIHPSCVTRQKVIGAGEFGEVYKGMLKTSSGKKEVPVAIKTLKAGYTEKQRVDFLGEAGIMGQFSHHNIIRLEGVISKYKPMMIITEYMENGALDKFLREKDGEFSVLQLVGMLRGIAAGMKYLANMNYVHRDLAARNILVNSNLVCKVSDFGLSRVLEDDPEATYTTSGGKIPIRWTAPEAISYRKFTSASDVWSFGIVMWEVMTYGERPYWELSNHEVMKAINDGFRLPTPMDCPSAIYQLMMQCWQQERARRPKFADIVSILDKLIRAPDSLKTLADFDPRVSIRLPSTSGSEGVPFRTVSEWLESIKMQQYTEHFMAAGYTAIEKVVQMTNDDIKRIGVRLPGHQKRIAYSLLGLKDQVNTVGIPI

EPHB3 = biological target: T3, EPHB3 (Homo sapiens, UniProt P54753); experiment: Kinobeads two-dose competition binding: EPHB3; conditions: read-out: Lestaurtinib Drugmatrix value, Gene Name EPHB3
T3 construct: endogenous in cells
T3 sequence (P54753 34-998): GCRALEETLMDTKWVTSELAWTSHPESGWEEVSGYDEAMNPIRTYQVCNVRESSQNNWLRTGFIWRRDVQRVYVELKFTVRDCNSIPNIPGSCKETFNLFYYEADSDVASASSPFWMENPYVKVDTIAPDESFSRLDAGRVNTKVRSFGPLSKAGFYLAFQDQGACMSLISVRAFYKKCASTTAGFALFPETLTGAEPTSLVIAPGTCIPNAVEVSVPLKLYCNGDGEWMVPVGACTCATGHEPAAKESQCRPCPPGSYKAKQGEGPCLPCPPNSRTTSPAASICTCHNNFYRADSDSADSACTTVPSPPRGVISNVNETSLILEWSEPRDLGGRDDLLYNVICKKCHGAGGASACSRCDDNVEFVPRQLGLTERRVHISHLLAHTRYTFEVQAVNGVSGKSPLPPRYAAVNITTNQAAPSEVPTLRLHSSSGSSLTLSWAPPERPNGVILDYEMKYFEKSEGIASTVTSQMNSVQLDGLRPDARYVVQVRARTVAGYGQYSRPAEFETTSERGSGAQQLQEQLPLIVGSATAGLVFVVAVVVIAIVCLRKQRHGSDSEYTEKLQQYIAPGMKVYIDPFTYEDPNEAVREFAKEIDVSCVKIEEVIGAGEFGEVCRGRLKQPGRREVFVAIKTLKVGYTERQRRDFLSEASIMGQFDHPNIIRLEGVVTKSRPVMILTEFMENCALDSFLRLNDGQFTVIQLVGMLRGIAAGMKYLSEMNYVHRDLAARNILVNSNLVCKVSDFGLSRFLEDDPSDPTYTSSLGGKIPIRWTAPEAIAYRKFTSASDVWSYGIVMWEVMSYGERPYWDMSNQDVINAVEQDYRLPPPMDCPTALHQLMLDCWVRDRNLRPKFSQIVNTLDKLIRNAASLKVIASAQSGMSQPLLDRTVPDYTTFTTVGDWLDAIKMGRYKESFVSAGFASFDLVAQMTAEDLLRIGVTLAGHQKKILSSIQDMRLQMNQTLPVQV

MAPK14 = biological target: T4, MAPK14 (Homo sapiens, UniProt Q16539); experiment: Kinobeads full dose-response competition binding: MAPK14; conditions: Gene Name MAPK14
T4 construct: endogenous in cells
T4 sequence (Q16539 whole entry): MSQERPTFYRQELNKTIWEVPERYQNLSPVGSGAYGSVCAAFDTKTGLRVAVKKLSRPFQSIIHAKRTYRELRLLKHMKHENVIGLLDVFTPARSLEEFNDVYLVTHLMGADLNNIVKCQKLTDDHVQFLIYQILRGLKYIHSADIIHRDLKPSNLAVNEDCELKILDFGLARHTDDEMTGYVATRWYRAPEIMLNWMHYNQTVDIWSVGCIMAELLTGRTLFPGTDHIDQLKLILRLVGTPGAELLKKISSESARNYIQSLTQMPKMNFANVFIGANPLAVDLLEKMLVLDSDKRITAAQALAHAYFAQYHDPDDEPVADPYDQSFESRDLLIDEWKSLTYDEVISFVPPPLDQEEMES

[2] = EC50 with Correction, doses in nM, read-out: apparent Kd
[3] = eight-dose curve fit, doses in nM

T1 sequence (Q05655 whole entry): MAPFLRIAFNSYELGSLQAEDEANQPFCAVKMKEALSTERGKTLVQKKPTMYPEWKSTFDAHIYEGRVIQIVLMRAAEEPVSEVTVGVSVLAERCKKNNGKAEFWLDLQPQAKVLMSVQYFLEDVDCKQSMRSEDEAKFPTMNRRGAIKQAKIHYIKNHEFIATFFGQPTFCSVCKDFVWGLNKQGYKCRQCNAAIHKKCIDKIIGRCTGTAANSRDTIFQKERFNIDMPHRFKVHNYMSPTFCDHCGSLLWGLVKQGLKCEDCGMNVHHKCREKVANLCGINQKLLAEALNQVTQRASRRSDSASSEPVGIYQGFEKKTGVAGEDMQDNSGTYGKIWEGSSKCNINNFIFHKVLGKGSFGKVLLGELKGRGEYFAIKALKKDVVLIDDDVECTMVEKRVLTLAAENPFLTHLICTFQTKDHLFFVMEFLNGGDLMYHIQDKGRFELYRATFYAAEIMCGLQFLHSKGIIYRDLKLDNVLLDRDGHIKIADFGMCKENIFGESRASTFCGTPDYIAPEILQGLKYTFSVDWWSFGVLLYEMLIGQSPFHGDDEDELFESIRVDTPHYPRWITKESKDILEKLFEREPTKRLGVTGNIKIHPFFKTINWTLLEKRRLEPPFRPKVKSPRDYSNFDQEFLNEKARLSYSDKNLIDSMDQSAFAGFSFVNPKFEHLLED

CCn1c(-c2nonc2N)nc2c(C#CC(C)(C)O)nc(OCCN)cc21 [GSK902056A]
Relative Intensity 0.3nM (PRKCD; 0.3nM compound, DMSO = 1): 0.9769
Relative Intensity 1nM (PRKCD; 1nM compound, DMSO = 1): 1.01
Relative Intensity 3nM (PRKCD; 3nM compound, DMSO = 1): 1.114
Relative Intensity 10nM (PRKCD; 10nM compound, DMSO = 1): 1.044
Relative Intensity 30nM (PRKCD; 30nM compound, DMSO = 1): 0.8254
Relative Intensity 100nM (PRKCD; 100nM compound, DMSO = 1): 0.6161
Relative Intensity 300nM (PRKCD; 300nM compound, DMSO = 1): 0.3888
Relative Intensity 1000nM (PRKCD; 1000nM compound, DMSO = 1): 0.1734
Kd (PRKCD; [2]): 124 nM
EC50 (PRKCD; [3]): 124 nM

Cn1cc(-c2nc(N[C@@H]3CCCC[C@@H]3N)c(F)c3c2C(=O)NC3)cn1 [TAK659]
IL-10 levels [1]: dose-dependent reduction

C[C@]12O[C@H](C[C@]1(O)CO)n1c3ccccc3c3c4c(c5c6ccccc6n2c5c31)CNC4=O [Lestaurtinib]
potency estimated from few doses (EPHA2): 0.428 µM
potency estimated from few doses (EPHB3): 0.78 µM

NCc1ccc(-c2nc(-c3ccncc3)c(-c3ccc(Cl)c(O)c3)[nH]2)cc1 [SB-476429-A]
Relative Intensity 0.3nM (MAPK14; 0.3nM compound, DMSO = 1): 1.121
Relative Intensity 1nM (MAPK14; 1nM compound, DMSO = 1): 0.9468
Relative Intensity 3nM (MAPK14; 3nM compound, DMSO = 1): 1.026
Relative Intensity 10nM (MAPK14; 10nM compound, DMSO = 1): 0.8638
Relative Intensity 30nM (MAPK14; 30nM compound, DMSO = 1): 0.6876
Relative Intensity 100nM (MAPK14; 100nM compound, DMSO = 1): 0.6751
Relative Intensity 300nM (MAPK14; 300nM compound, DMSO = 1): 0.325
Relative Intensity 1000nM (MAPK14; 1000nM compound, DMSO = 1): 0.2
Kd (MAPK14; [2]): 174 nM
EC50 (MAPK14; [3]): 174 nM

Reference: publication PMC11062922 (Nature Chemical Biology, 2023)
